Eleven compounds from patent publication US20240366639A1, “HETEROCYCLIC GLP-1 AGONISTS” (GASHERBRUM BIO, INC., priority 2021, published 2024) can be followed below.

Read-outs that look alike come from different tables or passages of the source.

The assay addresses T1, GLP-1 Receptor (GLP1R) (Homo sapiens, UniProt P43220).
T1 construct: host or cells: HEK293/GLP1R/CRE-LUC
The experiment in a line: GLP-1R agonist cAMP stimulation assay (Method 3). It counts as cell-based. The conditions noted are these: HEK293/GLP1R/CRE-LUC cells (HDB), Method 3, 30 min incubation. How it is done:
Method 3: Activation of GLP-1 receptor is known to stimulate cyclic AMP (cAMP) production in cells which indicates primary coupling to the Gαs subunit of the G protein heterotrimeric complex.
To optimize functional activity directed toward Gαs coupling, a HEK293/CRE-Luc cell line developed by HDB stably expressing the GLP-1 Receptor was used, 200× concentration of compound working solutions were prepared (Agilent Technologies Bravo) with 1/2 log serial dilution in 384-well Echo LDV plate (Labcyte, Cat #LP-0200). 50 nL/well 200× concentration of compound working solutions were moved to 384-well white low volume plate (Greiner, Cat #784075) using Labcyte ECHO550. 1×10^5 cells/mL HEK293/GLP1R/CRE-LUC(HD Biosciences) cell suspensions prepared with assay buffer [DPBS containing 0.5 mM IBMX (Sigma, Cat #15879) and 0.1% BSA (GENVIEW, Cat #FA016-100 g)], 10 μL cell suspensions were added to each well of previous generated assay plate which already contains 50 nL compound at 200× concentration using ThermoFisher Multidrop Combi (1000 cells/well). Seal the plate and incubate at 37° C. with 5% CO2 for 30 min.
After incubation the cAMP assay signal was generated using cAMP dynamic 2 Kit (Cisbio). 5 μL cAMP-d2 working solution was added to each well, followed with 5 μL Anti-cAMP antibody-cryptate working solution added to each well using ThermoFisher Multidrop Combi. Incubate at room temperature for 1 hour protected from light. Read the fluorescence at 665 nm and 615 nm with Reader PerkinElmer EnVision.

Where [1] appears, read: read-out: GLP1R cAMP Stimulation DR: EC50 (nM) [Species: Human, Assay Cell Line: HDB].
The mark [2] stands for this setting: read-out: GLP1R cAMP Stimulation DR: pEC50 (M) [Species: Human, Assay Cell Line: HDB] (converted).

T1 sequence (P43220 24-463): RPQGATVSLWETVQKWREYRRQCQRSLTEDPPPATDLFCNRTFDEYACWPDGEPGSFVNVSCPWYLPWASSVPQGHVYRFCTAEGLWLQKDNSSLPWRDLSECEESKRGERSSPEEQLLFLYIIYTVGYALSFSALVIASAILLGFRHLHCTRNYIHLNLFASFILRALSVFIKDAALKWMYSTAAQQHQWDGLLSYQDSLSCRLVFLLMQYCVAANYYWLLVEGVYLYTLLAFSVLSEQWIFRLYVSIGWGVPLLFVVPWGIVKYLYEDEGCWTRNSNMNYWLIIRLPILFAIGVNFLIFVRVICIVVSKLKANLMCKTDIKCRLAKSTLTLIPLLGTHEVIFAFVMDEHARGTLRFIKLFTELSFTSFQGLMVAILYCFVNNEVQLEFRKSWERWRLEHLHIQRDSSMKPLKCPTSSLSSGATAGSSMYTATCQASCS

Turning to `CCP(=O)(CC)c1ccc(-n2ccn(-c3c4c(nn3-c3cc(C)c(F)c(C)c3)CCN(C(=O)c3cc5cc(C6CCOCC6)ccc5n3[C@@]3(c5noc(=O)[nH]5)C[C@@H]3C)[C@H]4C)c2=O)cc1NC(=O)C1CC1` [Compound 115a, N-(2-(diethylphosphoryl)-5-(3-((S)-2-(4-fluoro-3,5-dimethylphenyl)-4-methyl-5-(1-((1S,2S)-2-methyl-1-(5-oxo-4,5-dihydro-1,2,4-oxadiazol-3-yl)cyclopropyl)-5-(tetrahydro-2H-pyran-4-yl)-1H-indole-2-carbonyl)-4,5,6,7-tetrahydro-2H-pyrazolo[4,3-c]pyridin-3-yl)-2-oxo-2,3-dihydro-1H-imidazol-1-yl)phenyl)cyclopropanecarboxamide], the EC50 reads like this: under setting [1], 0.2 to 0.5 nM; under setting [2], 0.1 to 1 nM.

Regarding `Cc1cc(-n2ccn(-c3c4c(nn3-c3cc(C)c(F)c(C)c3)CCN(C(=O)c3cc5cc(C6CCOCC6)ccc5n3[C@@]3(c5noc(=O)[nH]5)C[C@@H]3C)[C@H]4C)c2=O)ccc1P(C)(C)=O` [Compound 124a, 3-((1S,2S)-1-(2-((S)-3-(3-(4-(dimethylphosphoryl)-3-methylphenyl)-2-oxo-2,3-dihydro-1H-imidazol-1-yl)-2-(4-fluoro-3,5-dimethylphenyl)-4-methyl-4,5,6,7-tetrahydro-2H-pyrazolo[4,3-c]pyridine-5-carbonyl)-5-(tetrahydro-2H-pyran-4-yl)-1H-indol-1-yl)-2-methylcyclopropyl)-1,2,4-oxadiazol-5(4H)-one], the EC50 under setting [1] was less than 0.1 nM and the EC50 under setting [2] is not above 0.1 nM.

`Cc1cc(-n2nc3c(c2-n2ccn(-c4ccc(P5(=O)CCN(C)CC5)cc4)c2=O)[C@H](C)N(C(=O)c2cc4cc(C5CCOCC5)ccc4n2[C@@]2(c4noc(=O)[nH]4)C[C@@H]2C)CC3)cc(C)c1F` [Compound 126a, 3-((1S,2S)-1-(2-((S)-2-(4-fluoro-3,5-dimethylphenyl)-4-methyl-3-(3-(4-(1-methyl-4-oxido-1,4-azaphosphinan-4-yl)phenyl)-2-oxo-2,3-dihydro-1H-imidazol-1-yl)-4,5,6,7-tetrahydro-2H-pyrazolo[4,3-c]pyridine-5-carbonyl)-5-(tetrahydro-2H-pyran-4-yl)-1H-indol-1-yl)-2-methylcyclopropyl)-1,2,4-oxadiazol-5(4H)-one]: the EC50 is 0.1 to 0.2 nM under setting [1] and 0.1 to 1 nM under setting [2].

As for `Cc1cc(-n2nc3c(c2-n2ccn(-c4ccc(P(C)(C)=O)cc4)c2=O)[C@H](C)N(C(=O)c2cc4cc(C5CCOCC5)ccc4n2[C@@]2(c4noc(=O)[nH]4)C[C@@H]2C)CC3)cc(C)c1F` [Compound 101a, 3-((1S,2S)-1-(2-((S)-3-(3-(4-(Dimethylphosphoryl)phenyl)-2-oxo-2,3-dihydro-1H-imidazol-1-yl)-2-(4-fluoro-3,5-dimethylphenyl)-4-methyl-4,5,6,7-tetrahydro-2H-pyrazolo[4,3-c]pyridine-5-carbonyl)-5-(tetrahydro-2H-pyran-4-yl)-1H-indol-1-yl)-2-methylcyclopropyl)-1,2,4-oxadiazol-5(4H)-one], the EC50 was 0.1 to 0.2 nM under setting [1] and 0.1 to 1 nM under setting [2].

For the compound `CCP(=O)(CC)c1ccc(-n2ccn(-c3c4c(nn3-c3cc(C)c(F)c(C)c3)CCN(C(=O)c3cc5cc(C6CCOCC6)ccc5n3[C@@]3(c5noc(=O)[nH]5)C[C@@H]3C)[C@H]4C)c2=O)cc1OC(F)F` [Compound 136a, 3-((1S,2S)-1-(2-((S)-3-(3-(4-(diethylphosphoryl)-3-(difluoromethoxy)phenyl)-2-oxo-2,3-dihydro-1H-imidazol-1-yl)-2-(4-fluoro-3,5-dimethylphenyl)-4-methyl-4,5,6,7-tetrahydro-2H-pyrazolo[4,3-c]pyridine-5-carbonyl)-5-(tetrahydro-2H-pyran-4-yl)-1H-indol-1-yl)-2-methylcyclopropyl)-1,2,4-oxadiazol-5(4H)-one], the EC50 under setting [1] was 0.2 to 0.5 nM and the EC50 under setting [2] is 0.1 to 1 nM.

`CCP(=O)(CC)c1ncc(-n2ccn(-c3c4c(nn3-c3cc(C)c(F)c(C)c3)CCN(C(=O)c3cc5cc(C6CCOCC6)ccc5n3[C@@]3(c5noc(=O)[nH]5)C[C@@H]3C)[C@H]4C)c2=O)cc1NC` [Compound 139a, 3-((1S,2S)-1-(2-((S)-3-(3-(6-(diethylphosphoryl)-5-(methylamino)pyridin-3-yl)-2-oxo-2,3-dihydro-1H-imidazol-1-yl)-2-(4-fluoro-3,5-dimethylphenyl)-4-methyl-4,5,6,7-tetrahydro-2H-pyrazolo[4,3-c]pyridine-5-carbonyl)-5-(tetrahydro-2H-pyran-4-yl)-1H-indol-1-yl)-2-methylcyclopropyl)-1,2,4-oxadiazol-5(4H)-one]: the EC50 under setting [1] was less than 0.1 nM and the EC50 under setting [2] was not above 0.1 nM.

Turning to `CCP(=O)(CC)c1ccc(-n2ccn(-c3c4c(nn3-c3cc(C)c(F)c(C)c3)CCN(C(=O)c3cc5cc([C@@H]6CCOC(C)(C)C6)ccc5n3[C@@]3(c5noc(=O)[nH]5)C[C@@H]3C)[C@H]4C)c2=O)cc1NC` [Compound 146a, 3-((1S,2S)-1-(2-((S)-3-(3-(4-(diethylphosphoryl)-3-(methylamino)phenyl)-2-oxo-2,3-dihydro-1H-imidazol-1-yl)-2-(4-fluoro-3,5-dimethylphenyl)-4-methyl-4,5,6,7-tetrahydro-2H-pyrazolo[4,3-c]pyridine-5-carbonyl)-5-((R)-2,2-dimethyltetrahydro-2H-pyran-4-yl)-1H-indol-1-yl)-2-methylcyclopropyl)-1,2,4-oxadiazol-5(4H)-one], the EC50 by setting is: under setting [1], less than 0.1 nM; under setting [2], not above 0.1 nM.

Turning to `CCP(=O)(CC)c1ccc(-n2ccn(-c3c4c(nn3-c3cc(C)c(F)c(C)c3)CCN(C(=O)c3cc5cc(C6CCOCC6)ccc5n3C3(c5noc(=O)[nH]5)CC3)[C@H]4C)c2=O)cc1NC` [Compound 135a, (S)-3-(1-(2-(3-(3-(4-(diethylphosphoryl)-3-(methylamino)phenyl)-2-oxo-2,3-dihydro-1H-imidazol-1-yl)-2-(4-fluoro-3,5-dimethylphenyl)-4-methyl-4,5,6,7-tetrahydro-2H-pyrazolo[4,3-c]pyridine-5-carbonyl)-5-(tetrahydro-2H-pyran-4-yl)-1H-indol-1-yl)cyclopropyl)-1,2,4-oxadiazol-5(4H)-one], the EC50 under setting [1] is less than 0.1 nM and the EC50 under setting [2] was not above 0.1 nM.

`CCP(=O)(CC)c1ccc(-n2ccn(-c3c4c(nn3-c3cc(C)c(F)c(C)c3)CCN(C(=O)c3cc5cc(C6CCOCC6)ccc5n3[C@@]3(c5noc(=O)[nH]5)C[C@@H]3C)[C@H]4C)c2=O)cc1NC(C)C` [Compound 119a, 3-((1S,2S)-1-(2-((S)-3-(3-(4-(diethylphosphoryl)-3-(isopropylamino)phenyl)-2-oxo-2,3-dihydro-1H-imidazol-1-yl)-2-(4-fluoro-3,5-dimethylphenyl)-4-methyl-4,5,6,7-tetrahydro-2H-pyrazolo[4,3-c]pyridine-5-carbonyl)-5-(tetrahydro-2H-pyran-4-yl)-1H-indol-1-yl)-2-methylcyclopropyl)-1,2,4-oxadiazol-5(4H)-one]: the EC50 is, setting by setting: under setting [1], 0.2 to 0.5 nM; under setting [2], 0.1 to 1 nM.

For the compound `CCP(=O)(CC)c1ccc(-n2ccn(-c3c4c(nn3-c3cc(C)c(F)c(C)c3)CCN(C(=O)c3cc5cc(C6CCC(F)(F)CC6)ccc5n3[C@@]3(c5noc(=O)[nH]5)C[C@@H]3C)[C@H]4C)c2=O)cc1NC` [Compound 133a, 3-((1S,2S)-1-(2-((S)-3-(3-(4-(diethylphosphoryl)-3-(methylamino)phenyl)-2-oxo-2,3-dihydro-1H-imidazol-1-yl)-2-(4-fluoro-3,5-dimethylphenyl)-4-methyl-4,5,6,7-tetrahydro-2H-pyrazolo[4,3-c]pyridine-5-carbonyl)-5-(4,4-difluorocyclohexyl)-1H-indol-1-yl)-2-methylcyclopropyl)-1,2,4-oxadiazol-5(4H)-one], the EC50 runs as follows: under setting [1], 0.1 to 0.2 nM; under setting [2], 0.1 to 1 nM.

`Cc1cc(-n2nc3c(c2-n2ccn(-c4ccc(P(C)(C)=O)cc4F)c2=O)[C@H](C)N(C(=O)c2cc4cc(C5CCOCC5)ccc4n2[C@@]2(c4noc(=O)[nH]4)C[C@@H]2C)CC3)cc(C)c1F` [Compound 122a, 3-((1S,2S)-1-(2-((S)-3-(3-(4-(dimethylphosphoryl)-2-fluorophenyl)-2-oxo-2,3-dihydro-1H-imidazol-1-yl)-2-(4-fluoro-3,5-dimethylphenyl)-4-methyl-4,5,6,7-tetrahydro-2H-pyrazolo[4,3-c]pyridine-5-carbonyl)-5-(tetrahydro-2H-pyran-4-yl)-1H-indol-1-yl)-2-methylcyclopropyl)-1,2,4-oxadiazol-5(4H)-one]: the EC50 is, setting by setting: under setting [1], less than 0.1 nM; under setting [2], not above 0.1 nM.
